Results on 11 molecules are retold here after US8293736B2, “Purine compounds selective for PI3K P110 delta, and methods of use” (F. Hoffmann la Roche AG, priority 2010, dated 2012).

Structures are written as SMILES.

Experiment [1] has as its target T1, p110 delta (Homo sapiens, UniProt O00329).
T1 construct: purchased Upstate Group, Millipore; Dundee, UK
The experiment in a line: PI3K isoform inhibition assay (fluorescence polarization), p110 delta. The following applies: Ki apparent, Morrison equation; 25 μM ATP, 10 μM PIP2. The experiment is classed as biochemical. How it is done: (§1) Determination of the activity of PI3 kinase activity of Formula I compounds is possible by a number of direct and indirect detection methods.
(§2) PI3K enzymatic activity was assayed by measuring the amount of product phosphatidylinositol 3,4,5-phosphate (PIP3) formed from substrate 4,5 phosphatidylinositol 4,5-phosphate (PIP2) using a fluorescence polarization displacement assay. The decrease in fluorescence polarization of a fluorescent PIP3 probe is measured as it is displaced from a PIP3-binding protein GRP-1 detector by PI3K-catalyzed product. […] The kinase reactions were initiated by the addition of 40 ng/mL p110α/p85α, 300 ng/mL p110β/p85α, 40 ng/mL p110γ, or 40 ng/mL p110δ/p85α (Upstate Group, Millipore; Dundee, UK), and 10 μM PIP2 (Echelon Biosciences) to the wells. […] After 60 minutes of incubation at room temperature to allow equilibration of labeled and unlabeled PIP3 binding, the parallel and perpendicular components of the fluorescence emissions from each sample were measured at an excitation wavelength of 530 nm and an emission wavelength of 590 nm using an Envision fluorescent plate reader with a rhodamine filter (PerkinElmer Life and Analytical Sciences; Wellesley, Mass.). The assay is capable of detecting 0.1-2.0 μM PIP3 product. The Ki apparent values were obtained by fitting the dose-dependent inhibition data to the Morrison equation for tight-binding, competitive inhibitors. Reference: R. A. Copeland, Enzymes. “A Practical Introduction to Structure, Mechanism and Data Analysis”.
The Formula I compound was serially diluted in 100% DMSO. The kinase reaction was incubated for 1 h at room temperature, and the reaction was terminated by the addition of PBS. IC50 values were subsequently determined using sigmoidal dose-response curve fit (variable slope). […]
For orientation: Polarisation of emitted light reports the rotation of a fluorescent probe.

Experiment [2] has as its target T2, p110 alpha (Homo sapiens, UniProt P42336).
T2 construct: purchased Upstate Group, Millipore; Dundee, UK
Nature of the experiment: PI3K isoform inhibition assay (fluorescence polarization), p110 alpha. The experiment is classed as biochemical. Conditions: delta/alpha selectivity ratio. As to the method:
as §1, §2
The same protocol may be used to establish Ki values for p110α (alpha) PI3K binding.
The four Class I PI 3-kinases are cloned into baculovirus vectors as follows: […]

Experiment [3] deals with production of CD69 by B lymphocytes in human whole blood. The experiment in a line: CD69 Whole Blood Assay. The experiment is classed as cell-based. Conditions: Lymphocyte; human whole blood activated with goat F(ab')2 anti-human IgM, 20 hours. The source says:
There is good evidence that B-cells play a key role in the pathogenesis of autoimmune and/or inflammatory disease. Protein-based therapeutics that deplete B cells such as Rituxan are effective against autoantibody-driven inflammatory diseases such as rheumatoid arthritis (Rastetter et al. (2004) Annu Rev Med 55:477). CD69 is the early activation marker in leukocytes including T cells, thymocytes, B cells, NK cells, neutrophils, and eosinophils. The CD69 human whole blood assay (Example 903) determines the ability of compounds to inhibit the production of CD69 by B lymphocytes in human whole blood activated by crosslinking surface IgM with goat F(ab′)2 anti-human IgM.
Human blood is obtained from healthy volunteers, with the following restrictions: 1 week drug-free, non-smokers. Blood (approximately 20 mls to test 8 compounds) is collected by venipuncture into Vacutainer tubes with sodium heparin.
Solutions of Formula I compounds at 1000 or 2000 μM in PBS (20×), are diluted by three-fold serial dilutions in 10% DMSO in PBS for a nine point dose-response curve. An aliquot of 5.5 μl of each compound is added in duplicate to a 2 ml 96-well plate; 5.5 μl of 10% DMSO in PBS is added as control and no-stimulus wells. Human whole blood—HWB (100 μl) is added to each well. After mixing the plates are incubated at 37° C., 5% CO2, 100% humidity for 30 minutes. Goat F(ab′)2 anti-human IgM (10 μl of a 500 μg/ml solution, 50 μg/ml final) is added to each well (except the no-stimulus wells) with mixing and the plates are incubated for an additional 20 hours. At the end of the 20 hour incubation, samples are incubated with fluorescent labeled antibodies for 30 minutes, at 37° C., 5% CO2, 100% humidity. Include induced control, unstained and single stains for compensation adjustments and initial voltage settings. Samples are then lysed with Pharmingen Lyse™ according to the manufacturer's instructions. Samples are then transferred to a 96 well plate suitable to be run on the AMS 96 well system on the BD Calibur FACS cell sorter instrument. Data acquired and Mean Fluorescence Intensity values were obtained using Cell Quest Software. Results are initially analyzed by FACS analysis software (Flow Jo). The IC50 values are calculated by ActivityBase™ using Xlfit™ version 3, equation 201.

T2 sequence (P42336 whole entry, species assumed): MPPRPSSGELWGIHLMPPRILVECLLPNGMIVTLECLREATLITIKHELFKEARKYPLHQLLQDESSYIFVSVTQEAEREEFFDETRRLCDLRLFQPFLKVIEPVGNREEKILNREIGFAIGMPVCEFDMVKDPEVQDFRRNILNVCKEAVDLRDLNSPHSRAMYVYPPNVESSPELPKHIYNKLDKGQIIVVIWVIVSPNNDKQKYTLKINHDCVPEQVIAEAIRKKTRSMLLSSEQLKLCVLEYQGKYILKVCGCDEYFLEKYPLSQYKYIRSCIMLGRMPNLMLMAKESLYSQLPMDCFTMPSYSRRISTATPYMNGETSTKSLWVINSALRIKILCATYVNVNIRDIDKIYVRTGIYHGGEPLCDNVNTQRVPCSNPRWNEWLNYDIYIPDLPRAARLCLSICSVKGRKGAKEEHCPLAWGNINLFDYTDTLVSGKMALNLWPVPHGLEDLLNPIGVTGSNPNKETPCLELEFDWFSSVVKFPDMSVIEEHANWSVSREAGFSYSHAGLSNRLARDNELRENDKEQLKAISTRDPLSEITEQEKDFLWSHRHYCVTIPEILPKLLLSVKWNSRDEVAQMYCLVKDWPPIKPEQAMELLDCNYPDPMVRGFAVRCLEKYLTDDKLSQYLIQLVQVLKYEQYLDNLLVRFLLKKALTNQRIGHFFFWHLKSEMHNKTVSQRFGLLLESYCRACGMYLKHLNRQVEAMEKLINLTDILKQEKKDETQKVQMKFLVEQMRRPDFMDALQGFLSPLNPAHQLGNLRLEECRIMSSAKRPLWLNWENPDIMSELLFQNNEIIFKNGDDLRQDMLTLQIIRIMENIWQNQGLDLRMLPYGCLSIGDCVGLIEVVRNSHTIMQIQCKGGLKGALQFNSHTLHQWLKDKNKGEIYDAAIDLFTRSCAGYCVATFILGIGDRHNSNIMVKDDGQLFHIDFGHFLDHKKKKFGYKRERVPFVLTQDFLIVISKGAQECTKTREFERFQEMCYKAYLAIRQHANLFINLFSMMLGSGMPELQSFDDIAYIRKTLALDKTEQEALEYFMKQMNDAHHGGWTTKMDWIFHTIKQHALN
T2 sequence (P27986 whole entry partner, species assumed): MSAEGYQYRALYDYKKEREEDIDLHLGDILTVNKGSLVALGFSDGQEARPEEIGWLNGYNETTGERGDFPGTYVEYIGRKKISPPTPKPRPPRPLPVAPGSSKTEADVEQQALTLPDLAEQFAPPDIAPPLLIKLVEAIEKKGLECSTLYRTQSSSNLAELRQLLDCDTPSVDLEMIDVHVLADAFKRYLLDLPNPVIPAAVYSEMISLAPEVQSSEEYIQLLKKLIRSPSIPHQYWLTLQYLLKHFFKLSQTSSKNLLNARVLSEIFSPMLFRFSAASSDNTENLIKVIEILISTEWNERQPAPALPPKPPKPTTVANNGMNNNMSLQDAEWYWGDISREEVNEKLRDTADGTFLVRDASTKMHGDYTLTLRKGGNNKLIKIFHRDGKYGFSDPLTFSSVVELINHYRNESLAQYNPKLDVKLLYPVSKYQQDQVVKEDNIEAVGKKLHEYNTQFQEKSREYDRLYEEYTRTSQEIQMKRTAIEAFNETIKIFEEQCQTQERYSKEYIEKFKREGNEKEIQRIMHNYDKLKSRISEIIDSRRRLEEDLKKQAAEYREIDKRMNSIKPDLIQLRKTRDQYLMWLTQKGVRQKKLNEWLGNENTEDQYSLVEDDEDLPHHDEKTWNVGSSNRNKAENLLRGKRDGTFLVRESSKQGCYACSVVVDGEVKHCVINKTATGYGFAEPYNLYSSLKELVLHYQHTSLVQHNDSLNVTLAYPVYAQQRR
T1 sequence (O00329 whole entry): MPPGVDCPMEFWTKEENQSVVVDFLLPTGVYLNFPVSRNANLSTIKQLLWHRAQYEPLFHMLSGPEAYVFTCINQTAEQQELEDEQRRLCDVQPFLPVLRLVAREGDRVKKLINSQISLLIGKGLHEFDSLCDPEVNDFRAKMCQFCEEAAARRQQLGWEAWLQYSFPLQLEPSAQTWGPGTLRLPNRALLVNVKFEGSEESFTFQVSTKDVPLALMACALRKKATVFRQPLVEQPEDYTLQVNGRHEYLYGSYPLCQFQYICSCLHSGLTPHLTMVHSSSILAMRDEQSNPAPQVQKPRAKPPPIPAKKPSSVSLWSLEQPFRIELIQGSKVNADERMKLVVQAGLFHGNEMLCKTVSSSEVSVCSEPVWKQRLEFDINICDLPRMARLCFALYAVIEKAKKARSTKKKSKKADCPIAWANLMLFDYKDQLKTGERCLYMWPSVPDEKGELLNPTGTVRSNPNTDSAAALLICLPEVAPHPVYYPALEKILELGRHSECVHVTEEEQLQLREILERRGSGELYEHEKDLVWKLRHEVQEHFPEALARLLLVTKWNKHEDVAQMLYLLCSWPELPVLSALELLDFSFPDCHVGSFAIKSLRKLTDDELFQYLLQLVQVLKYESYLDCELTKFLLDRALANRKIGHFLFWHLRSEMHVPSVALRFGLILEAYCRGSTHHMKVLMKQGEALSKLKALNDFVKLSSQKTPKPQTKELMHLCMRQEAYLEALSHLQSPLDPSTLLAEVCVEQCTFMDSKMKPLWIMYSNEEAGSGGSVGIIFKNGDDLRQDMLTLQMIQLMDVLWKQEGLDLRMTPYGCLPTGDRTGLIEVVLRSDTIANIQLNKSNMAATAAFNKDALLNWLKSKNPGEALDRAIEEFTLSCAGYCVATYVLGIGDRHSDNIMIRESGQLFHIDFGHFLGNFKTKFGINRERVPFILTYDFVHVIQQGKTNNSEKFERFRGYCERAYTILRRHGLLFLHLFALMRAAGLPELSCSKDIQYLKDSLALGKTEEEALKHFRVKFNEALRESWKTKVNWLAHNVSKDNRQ
T1 sequence (P27986 whole entry partner): as the sequence (P27986 whole entry partner, species assumed) above

In the case of `CCc1nc2ccccc2n1-c1nc(N2CCOCC2)c2nc(OC3CCN(C4CCOCC4)CC3)n(C)c2n1` [Compound 101, 4-(2-(2-ethyl-1H-benzo[d]imidazol-1-yl)-9-methyl-8-(1-(tetrahydro-2H-pyran-4-yl)piperidin-4-yloxy)-9H-purin-6-yl)morpholine], in experiment [1], the Ki amounted to 1.84 nM. For the same molecule, the “Ki p110 alpha/ Ki p110 delta” value in experiment [2] is recorded as 78. The IC50 (usually the concentration needed to halve the response being measured) in experiment [3] was 35.4 nM.
As to `CC(C)C(=O)N1CC(Oc2nc3c(N4CCOCC4)nc(-n4c(N(C)C)nc5ccccc54)nc3n2C)C1` [Compound 131, 1-(3-(2-(2-(dimethylamino)-1H-benzo[d]imidazol-1-yl)-9-methyl-6-morpholino-9H-purin-8-yloxy)azetidin-1-yl)-2-methylpropan-1-one], the Ki in experiment [1] came out at 3.65 nM. Further, the “Ki p110 alpha/ Ki p110 delta” value in experiment [2] was determined as 180. Also, 14.6 nM corresponded to half-maximal inhibition in experiment [3] (IC50).
In the case of `CCc1nc2ccccc2n1-c1nc(N2CCOCC2)c2nc(OC3CNC3)n(C)c2n1` [Compound 133, 4-(8-(azetidin-3-yloxy)-2-(2-ethyl-1H-benzo[d]imidazol-1-yl)-9-methyl-9H-purin-6-yl)morpholine], the Ki in experiment [1] was found to be 8.53 nM. For the same molecule, the “Ki p110 alpha/ Ki p110 delta” value in experiment [2] was found to be 27. In addition, it took 10.8 nM to reach half-maximal inhibition in experiment [3] (IC50).
For `CCc1nc2ccccc2n1-c1nc(N2CCOCC2)c2nc(OC3CN(C(=O)C(C)C)C3)[nH]c2n1` [Compound 128, 1-(3-(2-(2-ethyl-1H-benzo[d]imidazol-1-yl)-6-morpholino-9H-purin-8-yloxy)azetidin-1-yl)-2-methylpropan-1-one] the same measures were 0.629 nM, 141 and 15.9 nM.
Take `CC(C)c1nc2ccccc2n1-c1nc(N2CCOCC2)c2nc(OC3CN(C4CCS(=O)(=O)CC4)C3)n(C)c2n1` [Compound 103, 4-(2-(2-isopropyl-1H-benzo[d]imidazol-1-yl)-9-methyl-8-(1-(1,1-dioxo-tetrahydro-2H-thiopyran-4-yl)azetidin-3-yloxy)-9H-purin-6-yl)morpholine]: the Ki in experiment [1] is 0.464 nM. Besides, the “Ki p110 alpha/ Ki p110 delta” value in experiment [2] was 256. In addition, the IC50 in experiment [3] turned out to be 3 nM.
For the molecule `CCc1nc2ccccc2n1-c1nc(N2CCOCC2)c2nc(OC3CCN(C4CCC(O)CC4)CC3)n(C)c2n1` (single isomer, unassigned) [Compound 130, 4-(4-(2-(2-ethyl-1H-benzo[d]imidazol-1-yl)-9-methyl-6-morpholino-9H-purin-8-yloxy)piperidin-1-yl)cyclohexanol], the Ki in experiment [1] is 0.594 nM. In addition, in experiment [2], the “Ki p110 alpha/ Ki p110 delta” value is listed as 151.
Consider `CC(C)C(=O)N1CC(Oc2nc3c(N4CCOCC4)nc(-n4c(C(C)C)nc5ccccc54)nc3n2C)C1` [Compound 107, 1-(3-(2-(2-isopropyl-1H-benzo[d]imidazol-1-yl)-9-methyl-6-morpholino-9H-purin-8-yloxy)azetidin-1-yl)-2-methylpropan-1-one], for which the Ki in experiment [1] was found to be 0.38 nM. The “Ki p110 alpha/ Ki p110 delta” value in experiment [2] is 173. The concentration for half-maximal inhibition (IC50) in experiment [3] worked out at 8.3 nM.
For the molecule `CC(C)c1nc2ccccc2n1-c1nc(N2CCOCC2)c2nc(OC3CN(C4CCOCC4)C3)n(C)c2n1` [Compound 104, 4-(2-(2-isopropyl-1H-benzo[d]imidazol-1-yl)-9-methyl-8-(1-(tetrahydro-2H-pyran-4-yl)azetidin-3-yloxy)-9H-purin-6-yl)morpholine], in experiment [1], the Ki is 0.651 nM. Moreover, in experiment [2], the “Ki p110 alpha/ Ki p110 delta” value was determined as 202.
Take `CCc1nc2ccccc2n1-c1nc(N2CCOCC2)c2nc(OC3CN(C(=O)C4C[C@H]4F)C3)n(C)c2n1` (stereo partly drawn) [Compound 154, (3-(2-(2-ethyl-1H-benzo [d]imidazol-1-yl)-9-methyl-6-morpholino-9H-purin-8-yloxy)azetidin-1-yl)((2R)-2-fluorocyclopropyl)methanone]: the Ki in experiment [1] turned out to be 0.573 nM. Moreover, the “Ki p110 alpha/ Ki p110 delta” value in experiment [2] is on record as 102.
Regarding `CC(C)c1nc2ccccc2n1-c1nc(N2CCOCC2)c2nc(OC3CN(CC(C)(C)O)C3)n(C)c2n1` [Compound 105, 1-(3-(2-(2-isopropyl-1H-benzo[d]imidazol-1-yl)-9-methyl-6-morpholino-9H-purin-8-yloxy)azetidin-1-yl)-2-methylpropan-2-ol], the Ki in experiment [1] turned out to be 2.03 nM. Further, in experiment [2], the “Ki p110 alpha/ Ki p110 delta” value stood at 93. For the same molecule, 28.1 nM corresponded to half-maximal inhibition in experiment [3] (IC50).
`CCc1nc2ccccc2n1-c1nc(N2CCOCC2)c2nc(OC3CCN(C4COC4)CC3)n(C)c2n1` [Compound 109, 4-(2-(2-ethyl-1H-benzo[d]imidazol-1-yl)-9-methyl-8-(1-(oxetan-3-yl)piperidin-4-yloxy)-9H-purin-6-yl)morpholine]: the Ki in experiment [1] stood at 1.15 nM. The “Ki p110 alpha/ Ki p110 delta” value in experiment [2] is 32.2.
